Test results reported in US10183914B2 (BAYER CROPSCIENCE AKTIENGESELLSCHAFT, priority 2014, dated 2019).

Assays:
[1] = logp (HCOOH), physicochemical characterization
[2] = system: Oryza sativa; experiment: Pre-emergence herbicidal effect and crop plant compatibility; format: in vivo; conditions: 3 weeks
From the text: (§1) Seeds of monocotyledonous and dicotyledonous weed plants and crop plants are laid out in wood-fiber pots in sandy loam and covered with soil. The compounds of the invention, formulated in the form of wettable powders (WP) or as emulsion concentrates (EC), are then applied to the surface of the covering soil as aqueous suspension or emulsion at a water application rate equating to 600 to 800 L/ha with addition of 0.2% wetting agent.
(§2) After the treatment, the pots are placed in a greenhouse and kept under good growth conditions for the trial plants. The damage to the trial plants is scored visually after a trial duration of 3 weeks by comparison with untreated controls (herbicidal activity in percent (%): 100% efficacy=the plants have died, 0% efficacy=like control plants).

[3] = system: Triticum aestivum (spring); experiment: as above; format: in vivo; conditions: 3 weeks
From the text: as §1, §2

[4] = system: Zea mays; experiment: as above; format: in vivo; conditions: 3 weeks
From the text: as §1, §2

[5] = system: Alopecurus myosuroides; experiment: Pre-emergence herbicidal effect; format: in vivo; conditions: 320 g/ha, 3 weeks
From the text: as §1, §2

[6] = system: Amaranthus retroflexus; experiment: Pre-emergence herbicidal effect; format: in vivo; conditions: 3 weeks
From the text: as §1, §2

[7] = system: Echinochloa crus-galli; experiment: Pre-emergence herbicidal effect; format: in vivo; conditions: 320 g/ha, 3 weeks
From the text: as §1, §2

[8] = system: Lolium multiflorum; experiment: Pre-emergence herbicidal effect; format: in vivo; conditions: 320 g/ha, 3 weeks
From the text: as §1, §2

[9] = system: Matricaria inodora; experiment: Pre-emergence herbicidal effect; format: in vivo; conditions: 3 weeks
From the text: as §1, §2

[10] = system: Polygonum convolvulus; experiment: Pre-emergence herbicidal effect; format: in vivo; conditions: 320 g/ha, 3 weeks
From the text: as §1, §2

[11] = system: Setaria viridis; experiment: Pre-emergence herbicidal effect; format: in vivo; conditions: 320 g/ha, 3 weeks
From the text: as §1, §2

[12] = system: Stellaria media; experiment: Pre-emergence herbicidal effect; format: in vivo; conditions: 3 weeks
From the text: as §1, §2

[13] = system: Veronica persica; experiment: Pre-emergence herbicidal effect; format: in vivo; conditions: 3 weeks
From the text: as §1, §2

[14] = system: Viola tricolor; experiment: Pre-emergence herbicidal effect; format: in vivo; conditions: 3 weeks
From the text: as §1, §2

[15] = system: Oryza sativa; experiment: Post-emergence herbicidal effect and crop plant compatibility; format: in vivo; conditions: visual scoring after about 3 weeks
Method: (§3) Seeds of monocotyledonous and dicotyledonous weed and crop plants are laid out in sandy loam in wood-fiber pots, covered with soil and cultivated in a greenhouse under good growth conditions. 2 to 3 weeks after sowing, the test plants are treated at the one-leaf stage. The compounds of the invention, formulated in the form of wettable powders (WP) or as emulsion concentrates (EC), are then sprayed onto the green parts of the plants as aqueous suspension or emulsion at a water application rate equating to 600 to 800 L/ha with addition of 0.2% wetting agent. After the trial plants have been left to stand in a greenhouse under optimal growth conditions for about 3 weeks, the efficacy of the formulations is scored visually in comparison to untreated controls (herbicidal action in percent (%): 100% efficacy=the plants have died, 0% efficacy=like control plants).

[16] = system: Triticum aestivum (spring); experiment: as above; format: in vivo; conditions: visual scoring after about 3 weeks
Method: as §3

[17] = system: Zea mays; experiment: as above; format: in vivo; conditions: visual scoring after about 3 weeks
Method: as §3

[18] = system: Ipomoea purpurea; experiment: Post-emergence herbicidal effect; format: in vivo; conditions: 320 g/ha (dose by row order of upper half), scoring after about 3 weeks
Method: as §3

| SMILES | logp (HCOOH) [1] | ORYSA herbicidal activity in percent ([2]; 320 g/ha) | TRZAS herbicidal activity in percent ([3]; 320 g/ha) | ZEAMX herbicidal activity in percent ([4]; 320 g/ha) | ALOMY herbicidal activity in percent [5] | AMARE herbicidal activity in percent ([6]; 320 g/ha) | ECHCG herbicidal activity in percent [7] | MATIN herbicidal activity in percent ([9]; 320 g/ha) | POLCO herbicidal activity in percent [10] | SETVI herbicidal activity in percent [11] | STEME herbicidal activity in percent ([12]; 320 g/ha) | VERPE herbicidal activity in percent ([13]; 320 g/ha) | VIOTR herbicidal activity in percent ([14]; 320 g/ha) | post-emergence efficacy ORYSA ([15]; 80 g/ha) | post-emergence efficacy ORYSA ([15]; 320 g/ha) | post-emergence efficacy TRZAS ([16]; 80 g/ha) | post-emergence efficacy TRZAS ([16]; 320 g/ha) | post-emergence efficacy ZEAMX ([17]; 80 g/ha) | post-emergence efficacy ZEAMX ([17]; 320 g/ha) | post-emergence efficacy PHBPU [18] | also measured |
| --- | --- | --- | --- | --- | --- | --- | --- | --- | --- | --- | --- | --- | --- | --- | --- | --- | --- | --- | --- | --- | --- |
| CC1(C)CC(=O)c2cnc(NC3CCOc4ccccc43)nc2C1 (racemic) [2.94] | oily; logp (HCOOH): 2.97; 1H-NMR (CDCl3, 400 MHZ, δ in ppm): 1.10 (s, 6H, | 0% | 0% | 0% | 80% | 100% | 100% | 100% | 100% | 90% | 100% | 100% | 100% | 0% | 0% | 10% | 20% | 0% | 0% | 80% | LOLMU herbicidal activity in percent [8]: 90% |
| CC1(C)CC(=O)c2cnc(N[C@@H]3CCCc4ccccc43)nc2C1 [2.25, 7,7-dimethyl-2-[(1R)-1,2,3,4-tetrahydronaphthalen-1-ylamino]-7,8-dihydroquinazolin-5(6H)-one] | – | 0% | – | 0% | – | 100% | 100% | 100% | 100% | 100% | 100% | 100% | 100% | 0% | 0% | 10% | 20% | 0% | 0% | 90% | chromatographic logP ([1]; HCOOH (formic acid)): 3.71; ORYSA herbicidal activity in percent ([2]; 80 g/ha): 0%; TRZAS herbicidal activity in percent ([3]; 80 g/ha): 0%; ZEAMX herbicidal activity in percent ([4]; 80 g/ha): 0%; AMARE herbicidal activity in percent ([6]; 80 g/ha): 90%; MATIN herbicidal activity in percent ([9]; 80 g/ha): 90%; STEME herbicidal activity in percent ([12]; 80 g/ha): 100%; VERPE herbicidal activity in percent ([13]; 80 g/ha): 100%; VIOTR herbicidal activity in percent ([14]; 80 g/ha): 100% |
| O=C1CC(C(F)(F)F)Cc2nc(N[C@@H]3CCCc4ccccc43)ncc21 (some centres unmarked) [2.96] | oily; logp (HCOOH): 3.71; 1H-NMR (CDCl3, 400 MHZ, δ in ppm): ): 1.95 (m, 3H, 2H | 0% | 0% | 10% | 80% | 100% | 100% | 90% | 80% | 90% | 100% | 100% | 100% | 0% | 0% | 10% | 20% | 0% | 10% | 80% | TRZAS herbicidal activity in percent ([3]; 80 g/ha): 0%; ZEAMX herbicidal activity in percent ([4]; 80 g/ha): 0%; AMARE herbicidal activity in percent ([6]; 80 g/ha): 100%; LOLMU herbicidal activity in percent [8]: 90%; STEME herbicidal activity in percent ([12]; 80 g/ha): 100%; VERPE herbicidal activity in percent ([13]; 80 g/ha): 100%; VIOTR herbicidal activity in percent ([14]; 80 g/ha): 100% |
